Patent publication EP3064205A1, “Therapeutic use of isomeric forms of 2-(4-chlorophenyl)quinolin-4-yl)(piperidin-2-yl)methanol” (Glionova AB, priority 2015, dated 2016)
Like-named read-outs stand apart in the source and are kept apart here.

Tests used:
[1] = Pharmacokinetic evaluation in mice (plasma and brain); assay type: in vivo, male NMRI mice; details: for Kp / half-life / Tmax / Cmax: male, NMRI, mouse; for Kp: brain/plasma, single oral administration of 20 mg/kg
Method: Compounds S1 and S2 were formulated at 0.4 mg/mL in 7.5% NMP, 10% Kolliphor in 0.9% NaCl (for i.v. administration) and at 2.0 mg/mL in 0.1% Tween 80, 0.5% Na-CMC in water (for p.o. administration).
The pharmacokinetic properties of S1 and S2 were determined in male NMRI mice (Charles River, Germany) following single intravenous (i.v., tail vein, 2 mg/kg) or per oral (p.o, gavage, 20 mg/kg). Light isoflurane anaesthesia was used at i.v. administration, no anaesthesia was used at p.o. administration. Blood samples were kept on ice after sampling and centrigued at +4 °C, 1800 x g for 5 minutes to prepare plasma. Blood and homogenized brain samples were taken from animals at the following nominal time points: 15, 30, and 60 minutes, and 2, 4, 6, 8, 24, 48, 72 and 144 hours after dosing (n=3 samples/time-point). Blood sampling (400-600 microliters) was performed by orbital plexus collection under isoflurane anaesthesia into EDTA plasma tubes (BD Microtainer K2EDTA). Bioanalytical quantification of S1 and S2 was analysed in plasma and brain samples by a UPLC-MS/MS. Pharmacokinetics were calculated by non-compartmental analysis (NCA) from composite (mean) profiles using Phoenix WinNonlin Professional (v 6.3). Nominal sampling times and dose levels have been used for the NCA calculations. All animals dosed with S1 and S2 were systemically exposed to the test compound. The plasma and brain concentrations were detectable and analysed until 144 h.
Brain sampling was performed after the end of blood sampling at the specified time points following euthanization and skull extraction. Brains were weighed and placed in test tubes and placed on wet ice. 4 mL PBS (pH 7.4) per 1 g of brain tissue was added to the test tube and brains were then homogenized using an Ultra-Turrax T25 homogenisator (Setting 2, 9500 rpm, 10s). The homogenates were frozen at -20° C immediately after homogenization.

Panc-1 cells = experiment: APH cell viability assay, 3D culture; assay type: cell-based, human
Source text: The following well-characterized human pancreatic ductal adenocarcinoma cell lines (ATCC) were used: HPAF II, BxPC-3, MIA-PaCa2 and Panc-1. These cell lines were generated from patient-derived tumors and are widely used model system to study pancreatic cancer (HPAF II: Kim YW, et al. Pancreas 4: 353-362, 1989; BxPC-3: Tan MH, et al. Cancer Invest. 4: 15-23, 1986; MIA-PaCa2: Yunis AA, et al. Int. J. Cancer 19: 128-135, 1977; Pacn-1: Lieber M, et al. Int. J. Cancer 15: 741-747, 1975).
Panc-1, HPAF II, KPC pancreatic adenocarcinoma cell lines were trypsin-treated and counted using the Casy Cell Counter according to the manufacturer's recommendations (GmbH). Subsequently, they were seeded onto round bottom non-tissue culture treated 96 well-plates (Falcon, BD NJ, USA) at a concentration of 2500 cells/well in 100 µl DMEM-F12 or phenol red-free DMEM-F12 medium, containing 10% FCS and supplemented with 20% methyl cellulose stock solution. For preparation of methylcellulose stock solution, 6 grams of methylcellulose powder (M0512, Sigma-Aldrich) was autoclaved in a 500 ml flask containing a magnetic stirrer (the methylcellulose powder is resistant to this procedure). The autoclaved methylcellulose was dissolved in preheated 250 ml basal medium (60°C) for 20 min (using the magnetic stirrer). Thereafter, 250 ml medium (room temperature) containing double amount of FCS (20%) was added to a final volume of 500 ml and the whole solution mixed overnight at 4°C. The final stock solution was aliquoted and cleared by centrifugation (5000g, 2 h, room temperature). Only the clear highly viscous supernatant was used for the spheroid assay (about 90-95% of the stock solution). For spheroid generation, 20% of the stock solution and 80% culture medium corresponding to final 0.24% methylcellulose was used. Spheroids were grown under standard culture conditions (5% CO2, at 37°C).
For 2D culture, cells were seeded on flat bottom 96 well plates (Costar) at a concentration of 2500 cells/well in 100 µl phenol red-free RPMI-F12 medium containing 10% FCS. For 3D culture, cells were seeded according to the description for spheroid preparation in phenol-free medium. […] The viability rate was calculated as a percentage of the untreated cells. All data were expressed as the mean ± SD of at least 8 replicates. To confirm the reliability of the APH assay on 2D culture, cell viability was measured using CellTiter-Glo assay (Promega).
The APH assay, which measures the activity of acidic phosphatase in the cells, was optimized for 3D cultures as follows. […] Absorbance at 405nm was measured within 10 minutes using a FluoStar OPTIMA plate reader (BMG Labtech). Viability rate was calculated as per cent of CTR untreated cells. All data are expressed as the mean ± SD of at least 8 replicates.

## O[C@H](c1cc(-c2ccc(Cl)cc2)nc2ccccc12)[C@@H]1CCCCN1 [S1, (R)-(2-(4-chlorophenyl)quinolin-4-yl)((S)-piperidin-2-yl)methanol]
[1]; brain, i.v., 2 mg/kg
  Brain AUC last: 52.7 µg·h/mL
  Brain Cmax: 1970 ng/mL
  Brain tlast: 144 h
[1]; brain, p.o., 20 mg/kg
  Brain AUC last: 400 µg·h/mL
  Brain Cmax: 4840 ng/mL
  Brain tlast: 144 h
[1]; po, 20 mg/kg, read-out: exposure ratio AUC(brain/plasma)
  Kp: 1.6
[1]; po, 20 mg/kg, read-out: exposure ratio Cmax(brain/plasma)
  Kp: 2.2
[1]; iv, brain, i.v., 2 mg/kg, read-out: Brain T1/2 (converted)
  half-life: 67 h
[1]; iv, brain, i.v., 2 mg/kg, read-out: Brain tmax
  Tmax: 0.25 h
[1]; iv, plasma, 2 mg/kg
  Cmax: 775 ng/mL
[1]; iv, plasma, i.v., 2 mg/kg, read-out: Plasma T1/2 (converted)
  half-life: 84 h
[1]; iv, plasma, i.v., 2 mg/kg, read-out: Plasma tmax
  Tmax: 4 h
[1]; po, brain, p.o., 20 mg/kg, read-out: Brain tmax
  Tmax: 8 h
[1]; po, plasma, 20 mg/kg
  Cmax: 2210 ng/mL
[1]; po, plasma, p.o., 20 mg/kg, read-out: Plasma tmax
  Tmax: 4 h
[1]; plasma, i.v., 2 mg/kg
  Plasma AUC last: 62 µg·h/mL
  Plasma tlast: 144 h
[1]; plasma, p.o., 20 mg/kg
  Plasma AUC last: 246 µg·h/mL
  Plasma tlast: 144 h
Panc-1 cells; Panc-1, 30 µM (data not shown)
  vacuole formation: vacuoles were formed
Panc-1 cells; Panc-1, 3D culture, 30 µM, 24h
  effect on cell viability: did not affect cells
Panc-1 cells; Panc-1, 3D culture, 30 µM, 48h
  decrease in cell viability: 55%
Panc-1 cells; Panc-1, 3D culture, 30 µM, 72h
  decrease in cell viability: 64%
